Assay results published in publication PMC5218480 (PLoS ONE, 2017).

System: MV-4-11 cells
Assay: Gene expression microarray analysis (Affymetrix PrimeView) and GSEA
Assay type: cell-based, human
Parameters: RFU PODN (11730768_x_at) / Fold change /veh PODN (11730768_x_at) / RFU LINC00158 (11744669_a_at) / Fold change /veh LINC00158 (11744669_a_at) / RFU DUSP10 (11751237_a_at) / Fold change /veh DUSP10 (11751237_a_at) / RFU ID3 (11757404_x_at) / Fold change /veh ID3 (11757404_x_at) / RFU PLEKHG5 (11737974_s_at) / Fold change /veh PLEKHG5 (11737974_s_at) / RFU LRRC4B (11730491_at) / Fold change /veh LRRC4B (11730491_at) / RFU GIMAP4 (11747438_a_at) / Fold change /veh GIMAP4 (11747438_a_at) / RFU KRT8 (11758183_x_at) / Fold change /veh KRT8 (11758183_x_at) / RFU CNN1 (11734310_a_at) / Fold change /veh CNN1 (11734310_a_at) / RFU VPS37D (11726825_at) / Fold change /veh VPS37D (11726825_at) / RFU C10orf10 (11716522_x_at) / Fold change /veh C10orf10 (11716522_x_at) / RFU KIR2DL2 /// KIR2DL4 /// KIR2DL5A /// KIR2DL5B /// KIR2DS1 /// KIR2DS2 /// KIR2DS3 /// KIR2DS4 /// KIR3DL3 /// KIR3DL3 /// KIR3DS1 (11738374_at) / Fold change /veh KIR2DL2 /// KIR2DL4 /// KIR2DL5A /// KIR2DL5B /// KIR2DS1 /// KIR2DS2 /// KIR2DS3 /// KIR2DS4 /// KIR3DL3 /// KIR3DL3 /// KIR3DS1 (11738374_at) / RFU C1QL1 (11718748_at) / Fold change /veh C1QL1 (11718748_at) / RFU TMPRSS4 (11747572_a_at) / Fold change /veh TMPRSS4 (11747572_a_at) / RFU HAMP (11756126_x_at) / Fold change /veh HAMP (11756126_x_at) / RFU RNFT2 (11725882_a_at) / Fold change /veh RNFT2 (11725882_a_at) / RFU NR4A2 (11747474_a_at) / Fold change /veh NR4A2 (11747474_a_at) / RFU ABCC12 (11746883_a_at) / Fold change /veh ABCC12 (11746883_a_at) / RFU TMEM136 (11760407_x_at) / Fold change /veh TMEM136 (11760407_x_at) / RFU CLDN22 /// WWC2 (11732394_at) / Fold change /veh CLDN22 /// WWC2 (11732394_at) / RFU HLA-DPB1 (11760878_x_at) / Fold change /veh HLA-DPB1 (11760878_x_at) / RFU SPINT1 (11716480_a_at) / Fold change /veh SPINT1 (11716480_a_at) / RFU GAP43 (11754022_s_at) / Fold change /veh GAP43 (11754022_s_at) / RFU A4GNT (11735810_at) / Fold change /veh A4GNT (11735810_at) / RFU PRB3 (11715151_x_at) / Fold change /veh PRB3 (11715151_x_at) / RFU TUBB4B (11761932_at) / Fold change /veh TUBB4B (11761932_at) / RFU CAPN14 (11732068_a_at) / Fold change /veh CAPN14 (11732068_a_at) / RFU TMCC2 (11721928_a_at) / Fold change /veh TMCC2 (11721928_a_at) / RFU IRGQ (11745062_a_at) / Fold change /veh IRGQ (11745062_a_at) / RFU FAM174B (11720279_a_at) / Fold change /veh FAM174B (11720279_a_at) / RFU TMPRSS4 (11748680_a_at) / Fold change /veh TMPRSS4 (11748680_a_at) / RFU FAM212B (11763350_a_at) / Fold change /veh FAM212B (11763350_a_at) / RFU PLEKHG5 (11743358_a_at) / Fold change /veh PLEKHG5 (11743358_a_at) / RFU ZSCAN30 (11745921_a_at) / Fold change /veh ZSCAN30 (11745921_a_at) / RFU CMKLR1 (11741424_a_at) / Fold change /veh CMKLR1 (11741424_a_at) / RFU LOC101060620 /// MAPK8IP1 (11723275_at) / Fold change /veh LOC101060620 /// MAPK8IP1 (11723275_at) / RFU SPTSSB (11747773_x_at) / Fold change /veh SPTSSB (11747773_x_at) / RFU PRSS12 (11739890_at) / Fold change /veh PRSS12 (11739890_at) / RFU BIN1 (11741810_x_at) / Fold change /veh BIN1 (11741810_x_at) / RFU WNT11 (11732464_a_at) / Fold change /veh WNT11 (11732464_a_at) / RFU C10orf10 (11716521_a_at) / Fold change /veh C10orf10 (11716521_a_at) / RFU C5orf56 (11738089_at) / Fold change /veh C5orf56 (11738089_at) / RFU CYB561 (11721691_x_at) / Fold change /veh CYB561 (11721691_x_at) / RFU ANKRD19P (11752326_a_at) / Fold change /veh ANKRD19P (11752326_a_at) / RFU OR2T12 /// OR2T33 /// OR2T8 (11738714_s_at) / Fold change /veh OR2T12 /// OR2T33 /// OR2T8 (11738714_s_at) / RFU VCAN (11748164_a_at) / Fold change /veh VCAN (11748164_a_at) / RFU JSRP1 (11732532_at) / Fold change /veh JSRP1 (11732532_at) / RFU KRTAP10-11 (11738290_x_at) / Fold change /veh KRTAP10-11 (11738290_x_at) / RFU MYO3A (11730013_a_at) / Fold change /veh MYO3A (11730013_a_at) / RFU EBF3 (11725865_a_at) / Fold change /veh EBF3 (11725865_a_at) / RFU CAMK2N1 (11719241_x_at) / Fold change /veh CAMK2N1 (11719241_x_at) / RFU C5orf56 (11738088_a_at) / Fold change /veh C5orf56 (11738088_a_at) / RFU OLFML3 (11715873_a_at) / Fold change /veh OLFML3 (11715873_a_at) / RFU LOC100653217 /// NTM (11731650_a_at) / Fold change /veh LOC100653217 /// NTM (11731650_a_at) / RFU MAPK11 (11762145_a_at) / Fold change /veh MAPK11 (11762145_a_at) / RFU FIZ1 (11724087_x_at) / Fold change /veh FIZ1 (11724087_x_at) / RFU OASL (11726364_x_at) / Fold change /veh OASL (11726364_x_at) / RFU SOX15 (11748057_x_at) / Fold change /veh SOX15 (11748057_x_at) / RFU CD79A (11719716_a_at) / Fold change /veh CD79A (11719716_a_at) / RFU HIST1H1D (11736915_at) / Fold change /veh HIST1H1D (11736915_at) / RFU CASKIN2 (11723855_a_at) / Fold change /veh CASKIN2 (11723855_a_at) / RFU LOC730098 (11760151_x_at) / Fold change /veh LOC730098 (11760151_x_at) / RFU OR4N2 (11742367_at) / Fold change /veh OR4N2 (11742367_at) / RFU PRRT2 (11749266_a_at) / Fold change /veh PRRT2 (11749266_a_at) / RFU SNX32 (11753110_a_at) / Fold change /veh SNX32 (11753110_a_at) / RFU CDHR5 (11726645_a_at) / Fold change /veh CDHR5 (11726645_a_at) / RFU RCAN1 (11760418_a_at) / Fold change /veh RCAN1 (11760418_a_at) / RFU FAM167A (11723789_a_at) / Fold change /veh FAM167A (11723789_a_at) / RFU FAM26E (11764081_at) / Fold change /veh FAM26E (11764081_at) / RFU ISYNA1 (11749810_s_at) / Fold change /veh ISYNA1 (11749810_s_at) / RFU ACY1 (11761880_at) / Fold change /veh ACY1 (11761880_at) / RFU 11764098_at / Fold change /veh 11764098_at / RFU SAMD14 (11745864_x_at) / Fold change /veh SAMD14 (11745864_x_at) / RFU NPB (11741838_a_at) / Fold change /veh NPB (11741838_a_at) / RFU TMPRSS6 (11731388_a_at) / Fold change /veh TMPRSS6 (11731388_a_at) / RFU KRTAP10-2 (11738614_at) / Fold change /veh KRTAP10-2 (11738614_at) / RFU ARHGAP8 /// PRR5-ARHGAP8 (11727945_x_at) / Fold change /veh ARHGAP8 /// PRR5-ARHGAP8 (11727945_x_at) / RFU KRTAP5-7 /// NADSYN1 (11734609_at) / Fold change /veh KRTAP5-7 /// NADSYN1 (11734609_at) / RFU RASL12 (11751679_a_at) / Fold change /veh RASL12 (11751679_a_at) / RFU CDKN2B (11736163_a_at) / Fold change /veh CDKN2B (11736163_a_at) / RFU PRF1 (11729649_at) / Fold change /veh PRF1 (11729649_at) / RFU, ZNF638 /// ZNF638-IT1 / Fold change vs veh, ZNF638 /// ZNF638-IT1 / RFU, PANK3 / Fold change vs veh, PANK3 / RFU, SH3YL1 / Fold change vs veh, SH3YL1 / RFU, ZEB2 / Fold change vs veh, ZEB2 / RFU, NRIP1 / Fold change vs veh, NRIP1 / RFU, PTTG1IP / Fold change vs veh, PTTG1IP / RFU, CAPN2 / Fold change vs veh, CAPN2 / RFU, MED14 / Fold change vs veh, MED14 / RFU, SNORA58 / Fold change vs veh, SNORA58 / RFU, C1orf63 / Fold change vs veh, C1orf63 / RFU, LRRFIP1 / Fold change vs veh, LRRFIP1 / RFU, NDUFAF7 / Fold change vs veh, NDUFAF7 / RFU, SLC12A2 / Fold change vs veh, SLC12A2 / RFU, IBTK / Fold change vs veh, IBTK / RFU, ESF1 / Fold change vs veh, ESF1 / Fold change vs veh, TMEM50B / RFU, TAOK1 / Fold change vs veh, TAOK1 / RFU, ACBD3 / Fold change vs veh, ACBD3 / RFU, TMA16 / Fold change vs veh, TMA16 / RFU, RWDD3 / Fold change vs veh, RWDD3 / RFU, BCAT1 / Fold change vs veh, BCAT1 / RFU, EDEM3 / Fold change vs veh, EDEM3 / RFU, TMEM33 / Fold change vs veh, TMEM33 / RFU, WDR75 / Fold change vs veh, WDR75 / RFU, AHCTF1 / Fold change vs veh, AHCTF1 / RFU, TFRC / Fold change vs veh, TFRC / RFU, ZDHHC17 / Fold change vs veh, ZDHHC17 / RFU, NOM1 / Fold change vs veh, NOM1 / RFU, ARL8B / Fold change vs veh, ARL8B / RFU, ZBTB11 / Fold change vs veh, ZBTB11 / RFU, TAMM41 / Fold change vs veh, TAMM41 / RFU, KIAA1704 /// LOC100996395 / Fold change vs veh, KIAA1704 /// LOC100996395 / RFU, ING1 / Fold change vs veh, ING1 / RFU, TRMT61B / Fold change vs veh, TRMT61B / RFU, FUBP3 / Fold change vs veh, FUBP3 / RFU, TP53 / Fold change vs veh, TP53 / RFU, TNKS2 / Fold change vs veh, TNKS2 / RFU, ZFP14 / Fold change vs veh, ZFP14 / RFU, ACTR2 / Fold change vs veh, ACTR2 / RFU, PPP3R1 / Fold change vs veh, PPP3R1 / RFU, PIK3R1 / Fold change vs veh, PIK3R1 / RFU, HNRNPA1 / Fold change vs veh, HNRNPA1 / RFU, RNF170 / Fold change vs veh, RNF170 / RFU, ZNF28 / Fold change vs veh, ZNF28 / RFU, RNGTT / Fold change vs veh, RNGTT / RFU, OGT / Fold change vs veh, OGT / RFU, BRD1 / Fold change vs veh, BRD1 / RFU, MARS / Fold change vs veh, MARS / RFU, ZNF655 / Fold change vs veh, ZNF655 / RFU, FAHD1 / Fold change vs veh, FAHD1 / RFU, BDP1 / Fold change vs veh, BDP1 / RFU, LRRCC1 / Fold change vs veh, LRRCC1 / RFU, ARID1A / Fold change vs veh, ARID1A / RFU, ZNF146 / Fold change vs veh, ZNF146 / RFU, ZNF330 / Fold change vs veh, ZNF330 / RFU, GPN3 / Fold change vs veh, GPN3 / RFU, C9orf123 / Fold change vs veh, C9orf123 / RFU, N4BP2L2 / Fold change vs veh, N4BP2L2 / RFU, ARFIP1 / Fold change vs veh, ARFIP1 / RFU, FAM179B / Fold change vs veh, FAM179B / RFU, BCL10 / Fold change vs veh, BCL10 / RFU, UHRF1BP1L / Fold change vs veh, UHRF1BP1L / RFU, BET1 / Fold change vs veh, BET1 / RFU, CNOT2 / Fold change vs veh, CNOT2 / RFU, ZNF268 / Fold change vs veh, ZNF268 / Fold change vs veh, ZNF507 / RFU, DGCR2 / Fold change vs veh, DGCR2 / RFU, WDSUB1 / Fold change vs veh, WDSUB1 / Fold change vs veh, HSP90B1 /// MIR3652 / RFU, ADSS / Fold change vs veh, ADSS / RFU, GK / Fold change vs veh, GK / RFU, ZNF148 / Fold change vs veh, ZNF148 / RFU, TAF9 / Fold change vs veh, TAF9 / RFU, SLC1A5 / Fold change vs veh, SLC1A5 / RFU, SLMO2 / Fold change vs veh, SLMO2 / RFU, ABCC4 / Fold change vs veh, ABCC4 / RFU, LOC101060439 /// RAP1B / Fold change vs veh, LOC101060439 /// RAP1B / RFU, RFX7 / Fold change vs veh, RFX7 / RFU, GTPBP10 / Fold change vs veh, GTPBP10 / RFU, CNEP1R1 / Fold change vs veh, CNEP1R1 / RFU, BIVM-ERCC5 /// ERCC5 / Fold change vs veh, BIVM-ERCC5 /// ERCC5 / RFU, ILF3 / Fold change vs veh, ILF3 / RFU 11762660_at / Fold change /veh 11762660_at / RFU VCAN (11757783_s_at) / Fold change /veh VCAN (11757783_s_at) / RFU DDX43 (11728927_at) / Fold change /veh DDX43 (11728927_at) / RFU KRT8 (11758188_x_at) / Fold change /veh KRT8 (11758188_x_at) / RFU NKD1 (11759106_at) / Fold change /veh NKD1 (11759106_at) / RFU SRD5A1 (11742802_a_at) / Fold change /veh SRD5A1 (11742802_a_at) / RFU TPSAB1 /// TPSB2 (11721975_s_at) / Fold change /veh TPSAB1 /// TPSB2 (11721975_s_at) / RFU GSTM3 (11746129_a_at) / Fold change /veh GSTM3 (11746129_a_at) / RFU IL23R (11737362_x_at) / Fold change /veh IL23R (11737362_x_at) / RFU TMEM51 (11727254_a_at) / Fold change /veh TMEM51 (11727254_a_at) / RFU PIWIL2 (11732686_x_at) / Fold change /veh PIWIL2 (11732686_x_at) / RFU ORM1 (11744905_x_at) / Fold change /veh ORM1 (11744905_x_at) / RFU CCDC152 (11743942_at) / Fold change /veh CCDC152 (11743942_at) / RFU ECM1 (11717891_a_at) / Fold change /veh ECM1 (11717891_a_at) / RFU IL23R (11748794_a_at) / Fold change /veh IL23R (11748794_a_at) / RFU TNFAIP8L3 (11732012_x_at) / Fold change /veh TNFAIP8L3 (11732012_x_at) / RFU MBOAT4 (11741988_at) / Fold change /veh MBOAT4 (11741988_at) / RFU 11764193_at / Fold change /veh 11764193_at / RFU TMEM53 (11763286_at) / Fold change /veh TMEM53 (11763286_at) / RFU MAGEB2 (11727129_at) / Fold change /veh MAGEB2 (11727129_at) / RFU TMEM200A (11744735_a_at) / Fold change /veh TMEM200A (11744735_a_at) / RFU CCDC152 (11751479_a_at) / Fold change /veh CCDC152 (11751479_a_at) / RFU FAM211A (11726209_a_at) / Fold change /veh FAM211A (11726209_a_at) / RFU RGS16 (11746705_a_at) / Fold change /veh RGS16 (11746705_a_at) / RFU VCAN (11755009_s_at) / Fold change /veh VCAN (11755009_s_at) / RFU RHOB (11743442_s_at) / Fold change /veh RHOB (11743442_s_at) / RFU RGS16 (11720943_a_at) / Fold change /veh RGS16 (11720943_a_at) / RFU RGS16 (11720944_at) / Fold change /veh RGS16 (11720944_at) / RFU, VPS4B / Fold change vs veh, VPS4B / RFU, CREB1 / Fold change vs veh, CREB1 / RFU, DNAJC13 / Fold change vs veh, DNAJC13 / RFU, GNAQ / Fold change vs veh, GNAQ / RFU, CDK5R1 / Fold change vs veh, CDK5R1 / RFU, ZRANB3 / Fold change vs veh, ZRANB3 / RFU, CUL4A / Fold change vs veh, CUL4A / RFU, CCNY / Fold change vs veh, CCNY / RFU, UFL1 / Fold change vs veh, UFL1 / RFU, COG3 / Fold change vs veh, COG3 / RFU, DIAPH2 / Fold change vs veh, DIAPH2 / RFU, SKA2 / Fold change vs veh, SKA2 / RFU, AFF3 / Fold change vs veh, AFF3 / RFU, LMF1 / Fold change vs veh, LMF1 / RFU, IPO11 / Fold change vs veh, IPO11 / RFU, DFFB / Fold change vs veh, DFFB / RFU, FOXP1 / Fold change vs veh, FOXP1 / RFU, CARD8 / Fold change vs veh, CARD8 / RFU, STRN3 / Fold change vs veh, STRN3 / RFU, ADK / Fold change vs veh, ADK / RFU, RASSF2 / Fold change vs veh, RASSF2 / RFU, WIPF1 / Fold change vs veh, WIPF1 / RFU, LARP1B / Fold change vs veh, LARP1B / RFU, RASA1 / Fold change vs veh, RASA1 / RFU, RB1 / Fold change vs veh, RB1 / RFU, PPFIA1 / Fold change vs veh, PPFIA1 / RFU, MAT2A / Fold change vs veh, MAT2A / RFU, CCT5 / Fold change vs veh, CCT5 / RFU, WDR92 / Fold change vs veh, WDR92 / RFU, CUX1 / Fold change vs veh, CUX1 / RFU, TTC7A / Fold change vs veh, TTC7A / RFU, TMEM135 / Fold change vs veh, TMEM135 / RFU, DEPTOR / Fold change vs veh, DEPTOR / RFU, CPM / Fold change vs veh, CPM / RFU, DNAJB6 / Fold change vs veh, DNAJB6 / RFU, CACNA2D3 / Fold change vs veh, CACNA2D3 / RFU, DTX4 / Fold change vs veh, DTX4 / RFU, TFCP2 / Fold change vs veh, TFCP2 / RFU, GMCL1 /// GMCL1P1 / Fold change vs veh, GMCL1 /// GMCL1P1 / RFU, AEBP2 / Fold change vs veh, AEBP2 / RFU, SNHG1 /// SNORD22 /// SNORD25 /// SNORD26 /// SNORD27 /// SNORD28 /// SNORD29 /// SNORD31 / Fold change vs veh, SNHG1 /// SNORD22 /// SNORD25 /// SNORD26 /// SNORD27 /// SNORD28 /// SNORD29 /// SNORD31 / Fold change (Aza/veh), C12orf56 (ProbeSet 11735607_a_at) / Fold change (ACY-1035/veh), C12orf56 (ProbeSet 11735607_a_at) / Fold change (Aza/veh), FGFR1OP (ProbeSet 11751329_s_at) / Fold change (ACY-1035/veh), FGFR1OP (ProbeSet 11751329_s_at) / Fold change (Aza/veh), VPS36 (ProbeSet 11739960_a_at) / Fold change (ACY-1035/veh), VPS36 (ProbeSet 11739960_a_at) / RFU SYPL1 (11715823_x_at) / Fold change /veh SYPL1 (11715823_x_at) / RFU IGFBP7 (11715501_s_at) / Fold change /veh IGFBP7 (11715501_s_at) / RFU REEP3 (11722064_at) / Fold change /veh REEP3 (11722064_at) / RFU IGLL1 (11728026_x_at) / Fold change /veh IGLL1 (11728026_x_at): dose or concentration left out as unconfirmed
Details: MV-4-11 cells, 48 hours

Nc1ccc(-c2cccs2)cc1NC(=O)c1ccc2c(c1)cc(C1CC1)n2CCN1CCOCC1 [ACY-1035]
RFU MAPK11 (11762145_a_at): 21.16 RFU
